The first experiment addresses ENPP-1 (Ectonucleotide Pyrophosphatase/Phosphodiesterase 1) (Homo sapiens (Human), UniProt P22413). In words: ENPP1 inhibition assay (AMP Glo, cGAMP substrate). The conditions noted are these: cGAMP 20 μM substrate, ENPP1 1 nM. It counts as biochemical. How it is done:
IC50 values of compounds against ENPP-1 (Ectonucleotide Pyrophosphatase/Phosphodiesterase 1) were determined at Integral BioSciences (India) using AMP Glo (Promega, Cat #V5011). Assay was performed in a 30 μL final volume in a white 96-well Half Area plate (Costar,Cat #3693). Dose response curve for the compounds were prepared in duplicates with starting conc. at 5 μM and a three-fold titration was performed. The reaction buffer consisted of 50 mM Tris (pH 8.0), 0.5 mM CaCl2), 1 μM ZnCl2, 250 mM NaCl and 0.1 mg/ml BSA. To the compound dilution, 15 μL of ENPP1 enzyme (R&D Systems; Cat #6136-EN-010) was added to each well (final conc. 1 nM) and the mix was pre-incubated for 15 min at RT. An equal volume (15 μL) containing cGAMP (Sigma, Cat #SML-1229) (final conc. 20 μM) was added to initiate the enzyme reaction and the reaction was incubated for 30 min at RT. The reaction was then stopped by heating at 90° C. for 3 minutes. 10 μl of reaction was then transferred to 384 well white, medium binding plates (Grenier, Cat #781075) to which 10 μl of AMP-Glo Reagent 1 was added and mixed well and incubated for 1 hour at 25° C. Following 60 min incubation, 20 μL of detection mixture was added to the enzyme reaction bringing the final volume to 40 μL. The reaction was further incubated for 60 min at RT after which the plates were read using BioTek Plate reader.
Analysis was done using the standard curve by non-linear regression, variable slope inhibitor curve fits (Graph-Pad Prism) and IC50's of compounds were determined wherever possible.
Sequence of ENPP-1 (Ectonucleotide Pyrophosphatase/Phosphodiesterase 1) (P22413 whole entry): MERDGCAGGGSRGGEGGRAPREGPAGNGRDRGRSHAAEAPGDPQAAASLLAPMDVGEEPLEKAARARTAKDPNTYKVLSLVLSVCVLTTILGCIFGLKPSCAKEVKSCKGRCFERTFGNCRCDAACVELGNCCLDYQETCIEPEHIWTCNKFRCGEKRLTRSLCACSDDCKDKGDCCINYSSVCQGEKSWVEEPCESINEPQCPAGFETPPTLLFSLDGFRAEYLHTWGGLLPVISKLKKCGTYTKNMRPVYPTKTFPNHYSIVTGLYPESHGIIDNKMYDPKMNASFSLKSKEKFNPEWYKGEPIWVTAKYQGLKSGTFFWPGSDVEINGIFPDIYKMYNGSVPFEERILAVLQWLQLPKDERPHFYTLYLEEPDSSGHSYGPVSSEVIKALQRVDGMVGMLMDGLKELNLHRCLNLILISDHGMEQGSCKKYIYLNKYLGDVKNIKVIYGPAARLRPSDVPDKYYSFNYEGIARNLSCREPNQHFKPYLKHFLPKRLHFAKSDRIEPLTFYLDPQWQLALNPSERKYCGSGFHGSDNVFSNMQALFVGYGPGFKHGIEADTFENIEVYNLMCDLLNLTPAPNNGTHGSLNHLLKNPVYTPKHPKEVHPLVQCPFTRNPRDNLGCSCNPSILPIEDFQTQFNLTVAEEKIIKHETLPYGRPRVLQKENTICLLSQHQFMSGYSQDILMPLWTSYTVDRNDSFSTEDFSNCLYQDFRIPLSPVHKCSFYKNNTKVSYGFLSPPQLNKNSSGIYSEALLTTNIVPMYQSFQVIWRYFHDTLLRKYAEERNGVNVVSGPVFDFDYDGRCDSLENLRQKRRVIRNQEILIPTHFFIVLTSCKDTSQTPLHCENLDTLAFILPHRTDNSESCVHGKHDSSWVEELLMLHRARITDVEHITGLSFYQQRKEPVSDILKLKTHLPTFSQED
What is called IC50 is the concentration that gives 50% inhibition. For `Cc1cc(C#N)n2ncnc(N3CC4(CC(N(C)S(N)(=O)=O)C4)C3)c12` [Compound 1.91, N-(2-(6-cyano-5-methylpyrrolo[1,2-f][1,2,4]triazin-4-yl)-2-azaspiro[3.3]heptan-6-yl)-N-methylsulfamamide], the 50% inhibitory concentration (IC50) was more than 3 µM.

As for `COc1cc2nccc(N3CC(CCNS(N)(=O)=O)C3)c2cc1OC` [Compound 1.11, (2-(1-(6,7-dimethoxyquinolin-4-yl)azetidin-3-yl)ethyl)aminosulfonamide], the half-maximal inhibitory concentration (IC50) stood at 0.09 µM. `CCc1nc(N2CC(CCNS(N)(=O)=O)C2)c2cc(OC)c(OC)cc2n1` [Compound 1.61, 2-ethyl-6,7-dimethoxy-4-[3-[2-(sulfamoylamino)ethyl]azetidin-1-yl]quinazoline]: the IC50 was 0.097 µM. On the same count and under the same terms, to `COc1cc2ncnc(N3CC(CNS(N)(=O)=O)C3)c2cc1OC` [Compound 1.10, N-((1-(6,7-dimethoxyquinazolin-4-yl)azetidin-3-yl)methyl) aminisulfonamide] belongs 0.028 µM; to `CCCCN(C1CC2(C1)CN(c1ncnn3c(Cl)cc(C)c13)C2)S(N)(=O)=O` [Compound 1.114, N-butyl-N-(2-(7-chloro-5-methylpyrrolo[2,1-f][1,2,4]triazin-4-yl)-2-azaspiro[3.3]heptan-6-yl)sulfamamide], 0.039 µM. As for `COc1ccc2c(N3CC(CCNS(N)(=O)=O)C3)nc(-c3cccnc3)nc2c1` [Compound 1.44, 4-(3-(2-sulfamoylaminoethyl)azetidine-1-yl)-7-methoxy-2-(pyridin-3-yl)quinazoline], the 50% inhibitory concentration (IC50) was more than 3 µM. In the case of `Cc1cc(Cl)n2ncnc(N3CC4(CC(N(C)Cc5ccc(S(N)(=O)=O)cc5)C4)C3)c12` [Compound 1.133, 4-(((2-(7-chloro-5-methylpyrrolo[2,1-f][1,2,4]triazin-4-yl)-2-azaspiro[3.3]heptan-6-yl)(methyl)amino)methyl)benzenesulfonamide], the midpoint of inhibition, the IC50, lay at 0.27 µM. `Cc1cc(Cl)n2ncnc(N3CC4(CC(N(C[C@@H](O)C(F)(F)F)S(N)(=O)=O)C4)C3)c12` (stereo in doubt) [Compound 1.125, N-(2-(7-chloro-5-methylpyrrolo[2,1-f][1,2,4]triazin-4-yl)-2-azaspiro[3.3]heptan-6-yl)-N-(3,3,3-trifluoro-2-hydroxypropyl)sulfamide]: the IC50 was 0.05 µM. Regarding `Cc1cc(C)n2ncnc(N3CC4(CC(N(C)S(N)(=O)=O)C4)C3)c12` [Compound 1.77, N-(2-(5,7-dimethylpyrrolo[1,2-f][1,2,4]triazin-4-yl)-2-azaspiro[3.3]heptan-6-yl)-N-methylsulfamide], 0.295 µM corresponded to half-maximal inhibition (IC50). Consider `Cc1cc(Cl)n2ncnc(N3CC4(CC(N(C(C)C)S(N)(=O)=O)C4)C3)c12` [Compound 1.82, N-(2-(7-chloro-5-methylpyrrolo[2,1-f][1,2,4]triazin-4-yl)-2-azaspiro[3.3]heptan-6-yl)-N-isopropylsulfamamide], for which the IC50 was 1.89 µM. Regarding `COc1cc2[nH]c(=O)nc(N3CC(CCNS(N)(=O)=O)C3)c2cc1OC` [Compound 1.2, (2-(1-(6,7-dimethoxy-2-oxo-1,2-dihydroquinazolin-4-yl)azetidin-3-yl)ethyl)amiosulfonamide], the half-maximal inhibitory concentration (IC50) was more than 5 µM.

As for `COc1cc2c(N3CC(CCNS(N)(=O)=O)C3)ncnc2cn1` [Compound 1.3, (2-(1-(6-methoxypyrido[3,4-d]pyrimidin-4-yl)azetidin-3-yl)ethyl)aminisulfonamide], the midpoint of inhibition, the IC50, lay at 0.22 µM.

Take `COc1cccc2c(N3CC(CCNS(N)(=O)=O)C3)ncnc12` [Compound 1.4, (2-(1-(8-methoxyquinazolin-4-yl)azetidin-3-yl)ethyl)aminosulfonamide]: the IC50 was 0.072 µM. For `COc1cc2ncnc(N3CC4(CC(CB(O)O)C4)C3)c2cc1OC` [Compound 1.53, (2-(6,7-dimethoxyquinazolin-4-yl)-2-azaspiro[3.3]heptan-6-yl)methylboronic acid], 0.122 µM corresponded to half-maximal inhibition (IC50). Regarding `Cc1cc(F)n2ncnc(N3CC4(CC(N(C)S(N)(=O)=O)C4)C3)c12` [Compound 1.80, N-(2-(7-fluoro-5-methylpyrrolo[1,2-f][1,2,4]triazin-4-yl)-2-azaspiro[3.3]heptan-6-yl)-N-methylsulfamamide], the IC50 amounted to 0.616 µM. The compound `Cc1cc(Cl)n2ncnc(N3CC4(CC(N(CC(F)F)S(N)(=O)=O)C4)C3)c12` [Compound 1.99, N-(2-(7-chloro-5-methylpyrrolo[2,1-f][1,2,4]triazin-4-yl)-2-azaspiro[3.3]heptan-6-yl)-N-(2,2-difluoroethyl)sulfamamide] displayed a 50% inhibitory concentration (IC50) of 0.01 µM. `Cc1cc(Cl)n2ncnc(N3CC4(CC(N(CC5CCC5)S(N)(=O)=O)C4)C3)c12` [Compound 1.116, N-(2-(7-chloro-5-methylpyrrolo[2,1-f][1,2,4]triazin-4-yl)-2-azaspiro[3.3]heptan-6-yl)-N-(cyclobutylmethyl)sulfamide] had an IC50 of 0.069 µM. `CCCN(C1CC2(C1)CN(c1nc(C)nn3c(Cl)cc(C)c13)C2)S(N)(=O)=O` [Compound 1.103, N-(2-(7-chloro-2,5-dimethylpyrrolo[1,2-f][1,2,4]triazin-4-yl)-2-azaspiro[3.3]heptan-6-yl)-N-propylsulfatamide] showed a 50% inhibitory concentration (IC50) of 0.59 µM. `Cn1ccc2ncnc(N3CC(CCNS(N)(=O)=O)C3)c21` [Compound 1.14, 4-(3-(2-sulfamoylaminoethyl)azetidine-1-yl)-5-methyl-5H-pyrrolo[3,2-d]pyrimidine] showed an IC50 of 0.12 µM. In turn, `Cc1cc(Cl)n2ncnc(N3CC4(CC(N(CC5CC5)S(N)(=O)=O)C4)C3)c12` [Compound 1.115, N-(2-(7-chloro-5-methylpyrrolo[2,1-f][1,2,4]triazin-4-yl)-2-azaspiro[3.3]heptan-6-yl)-N-(cyclopropylmethyl)sulfamamide] had a half-maximal inhibitory concentration (IC50) of 0.051 µM. Consider `CN(C1CC2(C1)CN(c1ncnc3c1cnn3C)C2)S(N)(=O)=O` [Compound 1.105, N-methyl-N-(2(1-methyl-1H-pyrazolo[3,4-d]pyrimidin-4-yl)-2-azaspiro[3.3]heptan-6-yl)sulfamamide], for which 0.091 µM corresponded to half-maximal inhibition (IC50). In turn, `COc1ccc2c(N3CC(CCCS(N)(=O)=O)C3)ncnc2c1` [Compound 1.56, 3-(1-(7-methoxyquinazolin-4-yl)azetidin-3-yl)propane-1-sulfonamide] yielded an IC50 of 0.085 µM. On the same count and under the same terms, next, `CCN(C1CC2(C1)CN(c1ncnn3c(Cl)cc(C)c13)C2)S(N)(=O)=O` [Compound 1.98, N-(2-(7-chloro-5-methylpyrrolo[2,1-f][1,2,4]triazin-4-yl)-2-azaspiro[3.3]heptan-6-yl)-N-ethylsulfamamide]: 0.055 µM.

Take `Cc1cc(Cl)n2ncnc(N3CC(CCN(C(C)C)S(N)(=O)=O)C3)c12` [Compound 1.83, N-(2-(1-(7-chloro-5-methylpyrrolo[2,1-f][1,2,4]triazin-4-yl)azetidin-3-yl)ethyl)-N-isopropylsulfamamide]: the 50% inhibitory concentration (IC50) was more than 3 µM.

The subject of another experiment is IP-10 release in differentiated THP-1 cells. In words: IP-10 cytokine release assay in THP-1 cell lines. Type of experiment: cell-based, Human. Conditions: Homo sapiens, read-out: EC50 (μM)@ 1 μM of cGAMP; IP-10 release over cGAMP induced release, THP-1, 1 μM cGAMP. How it is done:
Percent release of Interferon gamma-induced protein 10 (IP-10) was determined in acute monocytic leukemia (THP-1; ATCC® TIB-202™) cell line. THP-1 cells (0.2×10^6 cells/well) were differentiated using phorbol 12-myristate 13-acetate (PMA, 10 nM (final concentration); Cat #P8139, Sigma) and incubated for 24 h at 37° C., 5% CO2 in an incubator (cell culture conditions) prior to treating with serial dilutions of compounds (3 fold, 6 point dose response starting at 10 μM). After treatment with the compounds cells were further incubated for 2 h under cell culture conditions and then exposed to 2′,3′-cGAMP (c-GAMP, 1 μM (final concentration); Cat #SML 1229, Sigma). Differentiated THP-1 cells were further cultured for 24 h after which the supernatant was harvested, and ELISA was performed as per the manufacturer's protocol (BD optEIA Human IP-10 ELISA Set; Cat #550926 & 550534, BD Biosciences). Plates were read in Biotek plate reader by measuring absorbance at 450 nm.
The release of absolute IP-10 in differentiated THP-1 by compounds in the presence of cGAMP was quantified with reference to standard after subtracting blank (negative) reading from the test readings. The absolute release of IP-10 in the presence of cGAMP (1 μM) is given in the bar-graph (FIG.-1) and in the table-B2a.
The release of IP-10 in differentiated THP-1 by compounds over cGAMP induced release at four different concentrations of cGAMP (1, 5, 10 & 30 μM) was quantified with reference to standard by normalizing the blank (negative) subtracted test readings from average of cGAMP activated cells at that particular concentration. The EC50's was calculated by fitting the curve to the “four-parameter variable slope logistic model” using Prism Graph Pad.
In general, EC50 refers to the concentration needed to bring the measured effect to its halfway point. With `COc1cc2ncnc(N3CC4(CC(C(=O)NO)C4)C3)c2cc1OC` [Compound 1.63, 2-(6,7-dimethoxyquinazolin-4-yl)-N-hydroxy-2-azaspiro[3.3]heptane-6-carboxamide], the EC50 is less than 0.12 µM. Regarding `COc1cc2ncnc(N3CC(CCCNS(N)(=O)=O)C3)c2cc1OC` [Compound 1.69, 4-3-(3-sulfamoylaminopropyl)azetidin-1-yl-6,7-dimethoxyquinazoline], the concentration for a half-maximal effect (EC50) came out at 0.724 µM.

`COc1cc2ncnc(N3CC(CCN(C)S(N)(=O)=O)C3)c2cc1OC` [Compound 1.47, 4-(3-(2-sulfamoylmethylaminoethyl)azetidine-1-yl)-6,7-di-methoxyquinazoline]: the EC50 came to 19.9 µM.

The values are drawn from patent publication US20240352046A1, “ECTONUCLEOTIDE PYROPHOSPHATASE-PHOSPHODIESTERASE-1 (ENPP1) INHIBITORS AND USES THEREOF” (1cBio, Inc., priority 2020, published 2024).
